These results are taken from patent US20250129074A1, “CHIMERIC COMPOUND FOR TARGETED DEGRADATION OF ANDROGEN RECEPTOR PROTEIN, PREPARATION METHOD THEREFOR, AND MEDICAL USE THEREOF” (Jiangsu Hengrui Pharmaceuticals Co., Ltd., priority 2021, published 2025).

Like-named read-outs stand apart in the source and are kept apart here.

The target of one experiment is T1, androgen receptor (AR) (Homo sapiens, UniProt P10275, T878A).
T1 construct: host or cells: LNCaP human prostate cancer cells
T1 sequence (P10275 1-920 T878A): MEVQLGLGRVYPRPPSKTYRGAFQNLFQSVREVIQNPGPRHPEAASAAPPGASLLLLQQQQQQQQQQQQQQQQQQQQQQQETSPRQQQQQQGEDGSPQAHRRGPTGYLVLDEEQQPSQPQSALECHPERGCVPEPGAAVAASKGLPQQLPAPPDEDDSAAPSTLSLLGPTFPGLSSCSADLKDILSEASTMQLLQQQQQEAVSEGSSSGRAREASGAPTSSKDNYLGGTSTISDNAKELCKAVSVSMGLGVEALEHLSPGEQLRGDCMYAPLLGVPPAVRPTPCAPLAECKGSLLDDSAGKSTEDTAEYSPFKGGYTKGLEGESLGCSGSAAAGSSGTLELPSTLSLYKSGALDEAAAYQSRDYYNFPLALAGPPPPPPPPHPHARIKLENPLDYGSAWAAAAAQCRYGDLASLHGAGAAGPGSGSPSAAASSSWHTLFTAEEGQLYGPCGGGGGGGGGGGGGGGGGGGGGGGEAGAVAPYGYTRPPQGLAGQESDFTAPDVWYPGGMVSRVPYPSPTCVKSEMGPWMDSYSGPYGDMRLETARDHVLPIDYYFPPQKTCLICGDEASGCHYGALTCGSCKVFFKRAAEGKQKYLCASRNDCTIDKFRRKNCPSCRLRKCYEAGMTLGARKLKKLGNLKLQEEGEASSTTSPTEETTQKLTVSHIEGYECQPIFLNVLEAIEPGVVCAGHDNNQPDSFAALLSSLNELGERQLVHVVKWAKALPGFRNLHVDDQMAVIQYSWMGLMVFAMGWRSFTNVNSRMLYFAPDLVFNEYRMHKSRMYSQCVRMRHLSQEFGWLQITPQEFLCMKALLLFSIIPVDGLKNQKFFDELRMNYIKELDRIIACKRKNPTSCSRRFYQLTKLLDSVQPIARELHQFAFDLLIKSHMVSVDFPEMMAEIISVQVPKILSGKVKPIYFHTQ
As to the kind of experiment: Degradation activity on androgen receptor in LNCaP cells (AR ELISA). The settings on record: for Dmax: read-out: Max (maximum AR degradation rate). Type of experiment: cell-based. The method, then:
The plate was incubated in a 37° C., 5% CO2 cell incubator for three days. […] A blank control cell well containing 0.5% DMSO was set up. The plate was incubated in a 37° C., 5% CO2 cell incubator for 24 hours. […] The lysate was well mixed by pipetting up and down and then centrifuged at 4000 rpm at 4° C. for 10 minutes. […] The plate was sealed and incubated in a 37° C. incubator for 1 hour. […] The plate was sealed and then incubated in a 37° C. incubator for 30 minutes.
(In an ELISA, binding on a coated surface is turned into a signal by an enzyme label.)

A further experiment relates to LNCaP cells. As to the kind of experiment: Inhibition of LNCaP proliferation (CellTiter-Glo). Type of experiment: cell-based. The settings on record: Homo sapiens, 144 h, 0.1 nM R1881, six days; for Emax: read-out: Max (maximum proliferation inhibition rate). The protocol:
The plate was incubated in a 37° C., 5% CO2 cell incubator for three days. […] A blank control cell well containing 0.5% DMSO and a cell-free vehicle control well were set up. The plate was incubated in a 37° C., 5% CO2 cell incubator for six days.
In general terms: In ATP-based viability assays light output follows the ATP content of the culture.

Setting [1] is: 0.1 nM R1881, 24 hours, read-out: LNCaP DC50.
Where [2] appears, read: read-out: LNCaP DC50, 0.1 nM R1881, 24 hours.

By DC50 is commonly meant the concentration at which degradation of the target reaches its halfway point. One may read the IC50 as the concentration that gives 50% inhibition. The low end stands for greater potency in that assay, the high end for weaker potency in that assay. Take `C[C@H]1CC2(CCN(c3ccc(C(=O)N4CCC(N5CCN(c6cccc(NC7CCC(=O)NC7=O)c6)CC5)CC4)cc3)CC2)CN1c1ccc(C#N)c(Cl)c1` (stereo partly drawn) [Example 10, 2-Chloro-4-((3S)-8-(4-(4-(4-(3-((2,6-dioxopiperidin-3-yl)amino)phenyl)piperazin-1-yl)piperidine-1-carbonyl)phenyl)-3-methyl-2,8-diazaspiro[4.5]decan-2-yl)benzonitrile]: on androgen receptor (AR) (setting [1]), the DC50 is 2.5 nM. On androgen receptor (AR) (0.1 nM R1881, 24 hours), the Dmax was 97%. Besides, in the experiment on LNCaP cells, inhibition was half-maximal at 93 nM (IC50) and the Emax came out at 70%.

With `C[C@H]1CC2(CCN(c3ccc(C(=O)N4CCC(CN5CC(N6CCN(c7ccc(N8CCC(=O)NC8=O)cc7)CC6)C5)CC4)cc3)CC2)CN1c1ccc(C#N)c(Cl)c1` [Example 8, (S)-2-Chloro-4-(8-(4-(4-((3-(4-(4-(2,4-dioxotetrahydropyrimidin-1(2H)-yl)phenyl)piperazin-1-yl)azetidin-1-yl)methyl)piperidine-1-carbonyl)phenyl)-3-methyl-2,8-diazaspiro[4.5]decan-2-yl)benzonitrile], at androgen receptor (AR) (setting [1]), the DC50 came to 1.6 nM. For the same compound, the Dmax on androgen receptor (AR) (0.1 nM R1881, 24 hours) worked out at 85%. In the experiment with LNCaP cells, the IC50 turned out to be 9.8 nM and the Emax is 31%.

Turning to `C[C@H]1CC2(CCN(c3ccc(C(=O)N4CCC(CN5CCN(c6cccc(NC7CCC(=O)NC7=O)c6)CC5)CC4)c(F)c3)CC2)CN1c1ccc(C#N)c(Cl)c1` (stereo partly drawn) [Example 16, 2-Chloro-4-((3S)-8-(4-(4-((4-(3-((2,6-dioxopiperidin-3-yl)amino)phenyl)piperazin-1-yl)methyl)piperidine-1-carbonyl)-3-fluorophenyl)-3-methyl-2,8-diazaspiro[4.5]decan-2-yl)benzonitrile], the Dmax at androgen receptor (AR) (0.1 nM R1881, 24 hours) was 97%. Moreover, at androgen receptor (AR) (setting [2]), the half-maximal degradation concentration (DC50) was found to be 3.9 nM. In the experiment with LNCaP cells, 84 nM corresponded to half-maximal inhibition (IC50) and the Emax turned out to be 70%.

Take `C[C@H]1CC2(CCN(c3ccc(C(=O)N4CCC(N5CCC(N6CCN(c7ccc(N8CCC(=O)NC8=O)cc7)CC6)CC5)CC4)cc3)CC2)CN1c1ccc(C#N)c(Cl)c1` [Example 6, (S)-2-Chloro-4-(8-(4-(4-(4-(4-(2,4-dioxotetrahydropyrimidin-1(2H)-yl)phenyl)piperazin-1-yl)-[1,4′-bipiperidine]-1′-carbonyl)phenyl)-3-methyl-2,8-diazaspiro[4.5]decan-2-yl)benzonitrile]: on androgen receptor (AR) (setting [1]), the DC50 was 5.7 nM. The Dmax on androgen receptor (AR) (0.1 nM R1881, 24 hours) was 86%. Also, in the experiment on LNCaP cells, the IC50 turned out to be 24.6 nM and the Emax was determined as 50%.

As for `C[C@H]1CC2(CCN(c3ccc(C(=O)N4CCC(N5CCN(c6ccc(C(=O)NC7CCC(=O)NC7=O)nc6)CC5)CC4)cc3)CC2)CN1c1ccc(C#N)c(Cl)c1` (stereo partly drawn) [Example 2, 5-(4-(1-(4-((S)-2-(3-Chloro-4-cyanophenyl)-3-methyl-2,8-diazaspiro[4.5]decan-8-yl)benzoyl)piperidin-4-yl)piperazin-1-yl)-N-(2,6-dioxopiperidin-3-yl)picolinamide], on androgen receptor (AR) (0.1 nM R1881, 24 hours), the Dmax stood at 90%. Also, the DC50 on androgen receptor (AR) (setting [2]) was determined as 5.1 nM. For the same compound, in the experiment with LNCaP cells, the midpoint of inhibition, the IC50, lay at 164 nM and the Emax came out at 62%.

For `C[C@H]1CC2(CCN(c3ccc(C(=O)N4CCC(CN5CCN(c6cccc(NC7CCC(=O)NC7=O)c6)CC5)CC4)cn3)CC2)CN1c1ccc(C#N)c(Cl)c1` (stereo partly drawn) [Example 18, 2-Chloro-4-((3S)-8-(5-(4-((4-(3-((2,6-dioxopiperidin-3-yl)amino)phenyl)piperazin-1-yl)methyl)piperidine-1-carbonyl)pyridin-2-yl)-3-methyl-2,8-diazaspiro[4.5]decan-2-yl)benzonitrile], on androgen receptor (AR) (setting [1]), the 50% degradation concentration (DC50) was determined as 5.8 nM. The Dmax on androgen receptor (AR) (0.1 nM R1881, 24 hours) stood at 96%. Moreover, in the experiment on LNCaP cells, the IC50 came out at 123 nM and the Emax worked out at 72%.

In the case of `C[C@H]1CC2(CCN(c3cnc(C(=O)N4CCC(CN5CCN(c6cccc(NC7CCC(=O)NC7=O)c6)CC5)CC4)cn3)CC2)CN1c1ccc(C#N)c(Cl)c1` (stereo partly drawn) [Example 17, 2-Chloro-4-((3S)-8-(5-(4-((4-(3-((2,6-dioxopiperidin-3-yl)amino)phenyl)piperazin-1-yl)methyl)piperidine-1-carbonyl)pyrazin-2-yl)-3-methyl-2,8-diazaspiro[4.5]decan-2-yl)benzonitrile], the Dmax at androgen receptor (AR) (0.1 nM R1881, 24 hours) is 97%. For the same compound, the DC50 on androgen receptor (AR) (setting [2]) worked out at 3 nM. Moreover, in the experiment on LNCaP cells, half-maximal inhibition (IC50) required 112 nM and the Emax amounted to 74%.

`C[C@H]1CC2(CCN(c3ccc(C(=O)N4CCC5(CCC(N6CCN(c7ccc(N8CCC(=O)NC8=O)cc7)CC6)CC5)CC4)cc3)CC2)CN1c1ccc(C#N)c(Cl)c1` [Example 29, (S)-2-Chloro-4-(8-(4-(9-(4-(4-(2,4-dioxotetrahydropyrimidin-1(2H)-yl)phenyl)piperazin-1-yl)-3-azaspiro[5.5]undecane-3-carbonyl)phenyl)-3-methyl-2,8-diazaspiro[4.5]decan-2-yl)benzonitrile]: the 50% degradation concentration (DC50) at androgen receptor (AR) (setting [1]) was 12 nM. Besides, the Dmax on androgen receptor (AR) (0.1 nM R1881, 24 hours) worked out at 93%. Further, in the experiment with LNCaP cells, inhibition was half-maximal at 81 nM (IC50) and the Emax came out at 45%.

On to `C[C@H]1CC2(CCN(c3ccc(C(=O)N4CCC5(CC4)CC(N4CCN(c6ccc(C7CCC(=O)NC7=O)cc6)CC4)C5)cc3)CC2)CN1c1ccc(C#N)c(Cl)c1` (stereo partly drawn) [Example 34, 2-Chloro-4-((3S)-8-(4-(2-(4-(4-(2,6-dioxopiperidin-3-yl)phenyl)piperazin-1-yl)-7-azaspiro[3.5]nonane-7-carbonyl)phenyl)-3-methyl-2,8-diazaspiro[4.5]decan-2-yl)benzonitrile], for which, at androgen receptor (AR) (setting [1]), the DC50 is 5 nM. The Dmax on androgen receptor (AR) (0.1 nM R1881, 24 hours) is 96%. In addition, in the experiment on LNCaP cells, the IC50 is 12 nM and the Emax was 60%.

Consider `C[C@H]1CC2(CCN(c3ccc(C(=O)N4CCC(CN5CCC(c6cccc(NC7CCC(=O)NC7=O)c6)CC5)CC4)nn3)CC2)CN1c1ccc(C#N)c(Cl)c1` (stereo partly drawn) [Example 20, 2-Chloro-4-((3S)-8-(6-(4-((4-(3-((2,6-dioxopiperidin-3-yl)amino)phenyl)piperidin-1-yl)methyl)piperidine-1-carbonyl)pyridazin-3-yl)-3-methyl-2,8-diazaspiro[4.5]decan-2-yl)benzonitrile], for which the DC50 on androgen receptor (AR) (setting [1]) was 0.4 nM. Besides, the Dmax at androgen receptor (AR) (0.1 nM R1881, 24 hours) was found to be 92%. For the same compound, in the experiment on LNCaP cells, the 50% inhibitory concentration (IC50) is 15 nM and the Emax was found to be 59%.

Turning to `C[C@H]1CC2(CCN(c3ccc(C(=O)N4CCC5(CC4)CC(N4CCN(c6cccc(NC7CCC(=O)NC7=O)c6)CC4)C5)cc3F)CC2)CN1c1ccc(C#N)c(Cl)c1` (stereo partly drawn) [Example 36, 2-Chloro-4-((3S)-8-(4-(2-(4-(3-((2,6-dioxopiperidin-3-yl)amino)phenyl)piperazin-1-yl)-7-azaspiro[3.5]nonane-7-carbonyl)-2-fluorophenyl)-3-methyl-2,8-diazaspiro[4.5]decan-2-yl)benzonitrile], the DC50 at androgen receptor (AR) (setting [1]) stood at 5.3 nM. In addition, the Dmax on androgen receptor (AR) (0.1 nM R1881, 24 hours) turned out to be 97%. Further, in the experiment with LNCaP cells, 35 nM corresponded to half-maximal inhibition (IC50) and the Emax was determined as 57%.
